How the values were obtained:
[1] = system: Puccinia triticina; assay: Wheat brown rust (PUCCRT) disease control on wheat seedlings; assay type: in vivo; details: for PUCCRT 1DP disease control rating, HV activity / PUCCRT 3DC disease control rating, HV activity: HV application at 100 ppm; for PUCCRT 1DP disease control rating, HV activity / PUCCRT 3DC disease control rating, HV activity / LV activity at 125.1 g/H PUCCRT 1DP (disease control rating) / LV activity at 125.1 g/H PUCCRT 3DC (disease control rating): wheat brown rust; for LV activity at 125.1 g/H PUCCRT 1DP (disease control rating) / LV activity at 125.1 g/H PUCCRT 3DC (disease control rating) / PUCCRT 1DP, LV activity at 125.1 g/H (% Control rating) / PUCCRT 3DC, LV activity at 125.1 g/H (% Control rating): low volume application
[2] = system: Zymoseptoria tritici; assay: Leaf blotch of wheat (SEPTTR) disease control on wheat seedlings; assay type: in vivo; set-up: key to SEPTTR 1DP, HV activity at 100 ppm (% control rating) / SEPTTR 3DC, HV activity at 100 ppm (% control rating) / SEPTTR disease control, 1DP / SEPTTR disease control, 3DC / SEPTTR 1DP disease control rating, HV activity / SEPTTR 3DC disease control rating, HV activity / SEPTTR 3DC, LV activity at 125.1 g/H (% Control rating) / SEPTTR 1DP, LV activity at 125.1 g/H (% Control rating) / SEPTTR 1DP disease control rating, LV activity at 125.1 g/H / SEPTTR 3DC disease control rating, LV activity at 125.1 g/H / SEPTTR 3DC disease control rating, HV activity at 100 ppm / SEPTTR 1DP disease control rating, HV activity at 100 ppm / HV activity at 100 ppm SEPTTR 3DC (disease control rating) / HV activity at 100 ppm SEPTTR 1DP (disease control rating) / LV activity at 125.1 g/H SEPTTR 1DP (disease control rating) / LV activity at 125.1 g/H SEPTTR 3DC (disease control rating): A: > 80; B: ≤ 80; C: Not Tested; D: No Activity Observed in the Reported Assay; details: for SEPTTR 1DP disease control rating, HV activity / SEPTTR 3DC disease control rating, HV activity: HV application at 100 ppm; for SEPTTR 1DP disease control rating, HV activity / SEPTTR 3DC disease control rating, HV activity / LV activity at 125.1 g/H SEPTTR 1DP (disease control rating) / LV activity at 125.1 g/H SEPTTR 3DC (disease control rating): wheat leaf blotch; for LV activity at 125.1 g/H SEPTTR 1DP (disease control rating) / LV activity at 125.1 g/H SEPTTR 3DC (disease control rating) / SEPTTR 1DP, LV activity at 125.1 g/H (% Control rating) / SEPTTR 3DC, LV activity at 125.1 g/H (% Control rating): low volume application
[3] = HV activity at 100 ppm, 1 Day Protectant, wheat
[4] = HV activity at 100 ppm, 3 Day Curative, wheat
[5] = high volume application, 100 ppm, 1DP
[6] = high volume application, 100 ppm, 3DC

| Compound | PUCCRT 1DP disease control rating, HV activity ([1]; 1 Day Protectant) | PUCCRT 3DC disease control rating, HV activity ([1]; 3 Day Curative) | SEPTTR 1DP disease control rating, HV activity ([2]; 1 Day Protectant) | SEPTTR 3DC disease control rating, HV activity ([2]; 3 Day Curative) | LV activity at 125.1 g/H PUCCRT 1DP (disease control rating) ([1]; 1 Day Protectant) | LV activity at 125.1 g/H PUCCRT 3DC (disease control rating) ([1]; 3 Day Curative) | LV activity at 125.1 g/H SEPTTR 1DP (disease control rating) ([2]; 1 Day Protectant) | LV activity at 125.1 g/H SEPTTR 3DC (disease control rating) ([2]; 3 Day Curative) | other results |
| --- | --- | --- | --- | --- | --- | --- | --- | --- | --- |
| CCC(CC)[C@@H](OCC(C)C)[C@H](C)OC(=O)[C@H](C)NC(=O)c1nccc(OC)c1O [Cmpd 354] | B (≤ 80) | A (> 80) | B (≤ 80) | B (≤ 80) | – | – | – | – | – |
| C=CC[C@@H](Oc1cc(F)cc(Cl)c1)[C@H](C)OC(=O)[C@H](C)NC(=O)c1nccc(OC)c1OC(C)=O [Cmpd 1080] | – | – | – | – | A (> 80) | B (≤ 80) | B (≤ 80) | B (≤ 80) | – |
| CCC(CC)[C@@H](Oc1ccccc1)[C@H](C)OC(=O)[C@H](C)NC(=O)c1nccc(OC)c1O [Cmpd 306] | A (> 80) | A (> 80) | A (> 80) | A (> 80) | – | – | – | – | – |
| COc1ccnc(C(=O)N[C@@H](C)C(=O)O[C@@H](C)[C@H](Oc2cccc(Cl)c2)c2ccccc2)c1OC(C)=O [Cmpd 638] | – | – | – | – | – | – | – | – | PUCCRT 1DP, LV activity at 125.1 g/H (% Control rating) ([1]; 1 Day Protectant): A (> 80); PUCCRT 3DC, LV activity at 125.1 g/H (% Control rating) ([1]; 3 Day Curative): B (≤ 80); SEPTTR 1DP, LV activity at 125.1 g/H (% Control rating) ([2]; 1 Day Protectant): A (> 80); SEPTTR 3DC, LV activity at 125.1 g/H (% Control rating) ([2]; 3 Day Curative): A (> 80) |
| COc1ccnc(C(=O)N[C@@H](C)C(=O)O[C@@H](C)[C@H](Oc2ccccc2)C2CC2)c1OC(C)=O [Cmpd 1064] | – | – | – | – | A (> 80) | A (> 80) | B (≤ 80) | A (> 80) | – |
| COc1ccnc(C(=O)N[C@@H](C)C(=O)O[C@@H](C)[C@@H](CC(C)C)OCC2CC2)c1OC(C)=O [Cmpd 1112] | – | – | – | – | B (≤ 80) | A (> 80) | D | D | – |
| CCCOC(CC)C(Oc1ccccc1)C(C)OC(=O)C(CC)NC(=O)c1nccc(OC)c1O (centres unmarked) [Cmpd 296] | B (≤ 80) | A (> 80) | B (≤ 80) | B (≤ 80) | – | – | – | – | PUCCRT disease control, 1DP [1, 3]: B (≤ 80); PUCCRT disease control, 3DC [1, 4]: A (> 80); PUCCRT 1DP, HV activity at 100 ppm (% control rating) [1, 5]: B (≤ 80); PUCCRT 3DC, HV activity at 100 ppm (% control rating) [1, 6]: A (> 80); SEPTTR disease control, 1DP [2, 3]: B (≤ 80); SEPTTR disease control, 3DC [2, 4]: B (≤ 80); SEPTTR 1DP, HV activity at 100 ppm (% control rating) [2, 5]: B (≤ 80); SEPTTR 3DC, HV activity at 100 ppm (% control rating) [2, 6]: B (≤ 80) |
| COc1ccnc(C(=O)N[C@H](C(=O)O[C@@H](C)[C@H](Oc2cccc(Cl)c2)C(C)C)C(C)C)c1OCOC(C)=O [Cmpd 564] | – | – | – | – | – | – | – | – | PUCCRT 1DP, LV activity at 125.1 g/H (% Control rating) ([1]; 1 Day Protectant): A (> 80); PUCCRT 3DC, LV activity at 125.1 g/H (% Control rating) ([1]; 3 Day Curative): A (> 80); SEPTTR 1DP, LV activity at 125.1 g/H (% Control rating) ([2]; 1 Day Protectant): A (> 80); SEPTTR 3DC, LV activity at 125.1 g/H (% Control rating) ([2]; 3 Day Curative): A (> 80) |
| COc1ccnc(C(=O)N[C@@H](C)C(=O)O[C@@H](C)[C@H](Oc2ccc(C)cc2)C2CC2)c1OC(C)=O [Cmpd 1058] | – | – | – | – | A (> 80) | A (> 80) | B (≤ 80) | B (≤ 80) | – |
| CCC(C)C(Oc1ccccc1)C(C)OC(=O)C(C)NC(=O)c1nccc(OC)c1O (centres unmarked) [Cmpd 440] | A (> 80) | A (> 80) | A (> 80) | A (> 80) | – | – | – | – | – |
| COc1ccnc(C(=O)NC(C)C(=O)OC(C)C(Oc2ccccc2)c2cccs2)c1O (centres unmarked) [Cmpd 436] | B (≤ 80) | B (≤ 80) | A (> 80) | B (≤ 80) | – | – | – | – | – |
| CCC(CC)C(Oc1cc(F)ccc1F)C(C)OC(=O)C(C)NC(=O)c1nccc(OC)c1O (centres unmarked) [Cmpd 422] | A (> 80) | B (≤ 80) | A (> 80) | B (≤ 80) | – | – | – | – | – |

Reference: patent US20180000085A1, “USE OF PICOLINAMIDE COMPOUNDS WITH FUNGICIDAL ACTIVITY” (DOW AGROSCIENCES LLC, priority 2014, published 2018)
